Assay results from patent publication US20240024262A1, “USE OF VALERIC ACID IN PREPARATION OF DRUG FOR PREVENTING AND TREATING DIABETES” (Harbin Medical University, priority 2022, published 2024).

Assays:
[1] = system: Beta-TC-6 cell line; test: Insulin secretion ability test; format: cell-based, mouse; conditions: for secretion levels of the insulin stimulated under a high glucose environment: high sugar (20 mmol/L), after PA intervention
Text: (§1) Through an insulin secretion ability test, the levels of the insulin produced in each group under concentrations of no sugar, low sugar (2.8 mmol/L) and high sugar (20 mmol/L) are compared.

[2] = system: mouse primary islet β cells; test: Insulin secretion ability test; format: cell-based; conditions: for secretion levels of the insulin stimulated under a high glucose environment: high sugar (20 mmol/L), after PA intervention
Text: as §1

[3] = system: Beta-TC-6 cells; test: EdU-488 cell proliferation test; format: cell-based, mouse; conditions: PA alone, or SV 1 mmol/L after PA compared with PA group
Text: (§2) During the cell testing phase of this example, a cell line of mouse insulinoma islet β cells (Beta-TC-6) and mouse primary islet β cells were purchased from Wuhan Prosser Life Technology Co., Ltd for carrying out relevant experimental researches.
(§3) A cell Counting Kit 8 (CCK-8) is a convenient and reliable method to detect the cell activity. In this example, a BeyoClick™ EdU-488 kit is further used to detect the proliferation level of the cells. EdU (5-ethynyl-2′-deoxyuridine) is a thymidine analog that may replace T to infiltrate replicated DNA molecules in the process of cell proliferation. The replication activity of DNA was detected by specific reaction of EdU and an Apollo® Fluor 488 fluorescent dye, an EdU label was correctly detected, and then proliferation of cells was reflected. In this example, expression of Ki-67 in the cells was detected by immunofluorescence (immunocytochemistry), and apoptosis was analyzed by referring to a one-step TUNEL cell apoptosis detection kit (red fluorescence). Meanwhile, this example used a flow cytometry technology to complete detection of a cell cycle and apoptosis.
(§4) The following drugs are taken as comparative examples: • 1. […]

[4] = system: mouse primary islet β cells; test: TUNEL cell apoptosis detection test; format: cell-based; conditions: PA intervention, then SV intervention
Text: as §2, §3

[5] = system: Beta-TC-6 cells; test: Flow cytometry apoptosis analysis; format: cell-based, mouse; conditions: Beta-TC-6, flow cytometry; PA intervention, then SV intervention
Text: as §3
Sodium valerate SV can weaken PA induced apoptosis to a certain extent (FIG. 17).

[6] = system: mouse primary islet β cells; test: EdU-488 cell proliferation test; format: cell-based; conditions: PA alone, or SV 1 mmol/L after PA compared with PA group
Text: as §2, §3, §4

[7] = system: Beta-TC-6 cell line; test: TUNEL cell apoptosis detection test; format: cell-based, mouse; conditions: PA intervention, then SV intervention
Text: as §2, §3

[8] = system: Leptin receptor gene deficient db/db mice; test: Type 2 diabetes model db/db mice: food intake, body weight, blood glucose-related indexes; format: in vivo; conditions: comparison among groups / vs PBS control group
Experimental: The following drugs are taken as comparative examples: • 1. Comparative example where an existing drug serves as a positive control • (1) High-fat fed C57BL6/J mice • Sodium butyrate gavage intervention group: 75.0 mg/kg • (2) Type 2 diabetes model db/db mice • Sodium butyrate gavage intervention group: 75.0 mg/kg • Harmine gavage intervention group: 10.0 mg/kg • Metformin gavage intervention group: 100.0 mg/kg • (3) Cell line of mouse insulinoma islet β cells (Beta-TC-6) • Sodium butyrate intervention group: 1.0 mmol/L • Harmine intervention group: 10.0 μmmol/L • (4) Mouse islet β primary cell • Sodium butyrate intervention group: 1.0 mmol/L • Harmine intervention group: 10.0 μmmol/L • 2. A control test is taken as a comparative example • (1) High-fat fed C57BL6/J mice • Ordinary feed feeding group, and high-fat feed PBS gavage group • (2) Type 2 diabetes model db/db mice • Control feeding group and PBS gavage group • (3) Cell line of mouse insulinoma islet β cells (Beta-TC-6) • Blank control group, and palmitic acid (PA) intervention negative control group • (4) Mouse islet β primary cell • Blank control group, and PA intervention negative control group • Results are as follows:
(II) In the animal test, the therapeutic effect of the valeric acid on diabetes is observed by using Leptin receptor gene deficient db/db mice (purchased from Nanjing Junke Biotechnology Co., Ltd.) as test subjects.

Row | SMILES | secretion levels of the insulin stimulated under a high glucose environment [1] | secretion levels of the insulin stimulated under a high glucose environment [2] | secretion ability of the insulin ([1]; PA intervention) | proportion of EdU (+) cells [3] | proportion of apoptotic cells (TUNEL) [4] | secretion ability of the insulin ([2]; PA intervention) | proportion of apoptotic cells, Q2 quadrant (late apoptosis) and Q3 quadrant (early apoptosis) [5] | proportion of EdU (+) cells [6] | proportion of apoptotic cells (TUNEL) [7] | insulin secretion [8] | secretion levels of the insulin stimulated under a high glucose environment ([1]; listed as SV) | secretion levels of the insulin stimulated under a high glucose environment ([2]; listed as SV)
1 | COc1ccc2c(c1)[nH]c1c(C)nccc12 [Harmine] | significantly increased | significantly increased |  |  |  |  |  |  |  |  |  | 
2 | CCCCCCCCCCCCCCCC(=O)O [PA, palmitic acid, reference compound] |  |  | decreased significantly | decreased significantly | increased significantly | decreased significantly | increased significantly | decreased significantly | increased significantly |  |  | 
3 | CCCC(=O)[O-].[Na+] [Sb, sodium butyrate] | significantly increased | significantly increased |  |  |  |  |  |  |  |  |  | 
4 | CN(C)C(=N)N=C(N)N [metformin, reference compound] |  |  |  |  |  |  |  |  |  | basically no difference |  | 
5 | CCCCC(=O)[O-].[Na+] [sodium valerate] | more significant | more significant |  | increased significantly | slightly decreased |  | decreased significantly | increased significantly | slightly decreased |  | significantly increased | significantly increased
